ChEMBL document CHEMBL3286148, “Aminoazabenzimidazoles, a novel class of orally active antimalarial agents” (J Med Chem, 2014)
pIC50: −log10 of the molar value. Converted amounts (≈) assume the structure as drawn. The source made the active and inactive calls. No cut-off for these calls is given here.

Legend:
[1] = Clearance in rat hepatocytes assessed per 1E6 cells; type: ADME, cell-based, Hepatocyte; settings: read-out: CLH
[2] = Selectivity index, ratio of IC50 for human A549 cells to IC50 for Plasmodium falciparum; type: toxicity, cell-based; settings: read-out: Ratio IC50
Plasmodium falciparum [3] = assay: microbe, parasite or virus in culture; settings: NF54, 72 h
[4] = Clearance in human liver microsomes; type: ADME; settings: read-out: CLH
[5] = Clearance in mouse liver microsomes; type: ADME; settings: read-out: CLH
Plasmodium falciparum [6] = assay: microbe, parasite or virus in culture; settings: K1, 72 h
Cytochrome P450 3A4 = Cytochrome P450 3A4 (Homo sapiens, UniProt P08684); assay: Inhibition of CYP3A4 (unknown origin); type: ADME
[7] = Aqueous solubility of the compound; type: physicochemical; settings: buffer
Cytochrome P450 2D6 = Cytochrome P450 2D6 (Homo sapiens, UniProt P10635); assay: Inhibition of CYP2D6 (unknown origin); type: ADME
Cytochrome P450 1A2 = target: T1, Cytochrome P450 1A2 (Homo sapiens, UniProt P05177); assay: Inhibition of CYP1A2 (unknown origin); type: ADME
T1 sequence (P05177 whole entry): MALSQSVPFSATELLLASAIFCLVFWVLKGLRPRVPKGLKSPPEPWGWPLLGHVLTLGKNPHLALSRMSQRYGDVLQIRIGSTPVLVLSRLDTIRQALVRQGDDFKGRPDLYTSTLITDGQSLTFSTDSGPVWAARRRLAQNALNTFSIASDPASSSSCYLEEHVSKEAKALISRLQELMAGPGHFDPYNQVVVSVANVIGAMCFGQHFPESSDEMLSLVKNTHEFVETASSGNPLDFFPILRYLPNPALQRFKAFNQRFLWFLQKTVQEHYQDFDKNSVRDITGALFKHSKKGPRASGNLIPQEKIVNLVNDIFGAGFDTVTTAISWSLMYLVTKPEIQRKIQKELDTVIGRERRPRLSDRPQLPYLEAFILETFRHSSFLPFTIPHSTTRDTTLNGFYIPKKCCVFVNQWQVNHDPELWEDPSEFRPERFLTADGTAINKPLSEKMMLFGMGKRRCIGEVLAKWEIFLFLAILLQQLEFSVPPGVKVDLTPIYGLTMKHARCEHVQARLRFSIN

Cytochrome P450 2C9 = Cytochrome P450 2C9 (Homo sapiens, UniProt P11712); assay: Inhibition of CYP2C9 (unknown origin); type: ADME
[8] = Lipophilicity, log D of the compound; type: physicochemical; settings: octanol/water
Cytochrome P450 2C19 = Cytochrome P450 2C19 (Homo sapiens, UniProt P33261); assay: Inhibition of CYP2C19 (unknown origin); type: ADME
[9] = target: Voltage-gated inwardly rectifying potassium channel KCNH2 (Homo sapiens, UniProt Q12809); assay: Inhibition of human ERG
[10] = Fraction unbound in human plasma; type: ADME, cell-free
Plasmodium falciparum [11] = assay: microbe, parasite or virus in culture; settings: Dd2, 72 h
Description: Antiplasmodial activity against Plasmodium falciparum Dd2 after 72 hrs by SYBR I method

Plasmodium falciparum [12] = assay: microbe, parasite or virus in culture; settings: W2, 72 h
Description: Antiplasmodial activity against Plasmodium falciparum W2 after 72 hrs by SYBR I method

Plasmodium falciparum [13] = assay: microbe, parasite or virus in culture; settings: 7G8, 72 h
Description: Antiplasmodial activity against Plasmodium falciparum 7G8 after 72 hrs by SYBR I method

Plasmodium falciparum [14] = assay: microbe, parasite or virus in culture; settings: SB1, 72 h
Description: Antiplasmodial activity against Plasmodium falciparum SB1 after 72 hrs by SYBR I method

Plasmodium falciparum [15] = assay: Antiplasmodial activity against chloroquine and pyrimethamine-sensitive Plasmodium falciparum 3D7A assessed as parasite reduction ratio at 10 times IC50 after 48 hrs; type: functional, organism-based
Plasmodium falciparum [16] = assay: Antiplasmodial activity against Plasmodium falciparum Dd2; type: functional, organism-based
Plasmodium falciparum [17] = assay: Antiplasmodial activity against Plasmodium falciparum Dd2 harboring CRT mutant; type: functional, organism-based
Plasmodium falciparum [18] = assay: Antiplasmodial activity against Plasmodium falciparum Dd2 harboring DHODH mutant; type: functional, organism-based
Plasmodium falciparum [19] = assay: Antiplasmodial activity against Plasmodium falciparum Dd2 harboring HSP90 mutant; type: functional, organism-based
Plasmodium falciparum [20] = assay: Antiplasmodial activity against Plasmodium falciparum Dd2 harboring CYTb-Qi mutant; type: functional, organism-based

Sequence of Cytochrome P450 3A4 (P08684 whole entry): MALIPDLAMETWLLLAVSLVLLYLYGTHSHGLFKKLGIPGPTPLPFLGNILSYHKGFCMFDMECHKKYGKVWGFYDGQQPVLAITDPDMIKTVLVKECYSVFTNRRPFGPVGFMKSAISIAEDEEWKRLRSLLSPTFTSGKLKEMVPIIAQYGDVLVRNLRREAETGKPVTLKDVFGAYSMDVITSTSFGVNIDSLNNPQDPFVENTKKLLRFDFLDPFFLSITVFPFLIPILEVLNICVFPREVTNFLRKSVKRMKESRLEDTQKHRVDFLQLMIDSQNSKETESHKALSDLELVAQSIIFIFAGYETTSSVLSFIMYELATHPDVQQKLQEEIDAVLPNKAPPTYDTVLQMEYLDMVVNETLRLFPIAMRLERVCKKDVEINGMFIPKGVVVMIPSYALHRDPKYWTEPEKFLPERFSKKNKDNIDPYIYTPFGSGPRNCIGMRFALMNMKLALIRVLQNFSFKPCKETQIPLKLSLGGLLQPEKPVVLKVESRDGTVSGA
Sequence of Cytochrome P450 2C9 (P11712 whole entry): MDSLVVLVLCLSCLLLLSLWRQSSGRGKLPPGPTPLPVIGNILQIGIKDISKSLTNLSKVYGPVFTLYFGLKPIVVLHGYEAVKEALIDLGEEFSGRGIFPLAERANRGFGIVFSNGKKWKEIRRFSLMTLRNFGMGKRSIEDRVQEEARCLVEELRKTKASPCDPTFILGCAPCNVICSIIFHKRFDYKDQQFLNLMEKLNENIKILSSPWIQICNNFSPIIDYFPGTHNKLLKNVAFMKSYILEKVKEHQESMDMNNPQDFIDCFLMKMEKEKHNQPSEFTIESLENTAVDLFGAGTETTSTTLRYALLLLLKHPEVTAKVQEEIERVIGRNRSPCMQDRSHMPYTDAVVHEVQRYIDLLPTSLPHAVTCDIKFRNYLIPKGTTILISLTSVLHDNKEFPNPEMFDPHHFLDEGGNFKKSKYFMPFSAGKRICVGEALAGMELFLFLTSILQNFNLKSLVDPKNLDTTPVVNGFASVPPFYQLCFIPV
Sequence of Voltage-gated inwardly rectifying potassium channel KCNH2 (Q12809 whole entry): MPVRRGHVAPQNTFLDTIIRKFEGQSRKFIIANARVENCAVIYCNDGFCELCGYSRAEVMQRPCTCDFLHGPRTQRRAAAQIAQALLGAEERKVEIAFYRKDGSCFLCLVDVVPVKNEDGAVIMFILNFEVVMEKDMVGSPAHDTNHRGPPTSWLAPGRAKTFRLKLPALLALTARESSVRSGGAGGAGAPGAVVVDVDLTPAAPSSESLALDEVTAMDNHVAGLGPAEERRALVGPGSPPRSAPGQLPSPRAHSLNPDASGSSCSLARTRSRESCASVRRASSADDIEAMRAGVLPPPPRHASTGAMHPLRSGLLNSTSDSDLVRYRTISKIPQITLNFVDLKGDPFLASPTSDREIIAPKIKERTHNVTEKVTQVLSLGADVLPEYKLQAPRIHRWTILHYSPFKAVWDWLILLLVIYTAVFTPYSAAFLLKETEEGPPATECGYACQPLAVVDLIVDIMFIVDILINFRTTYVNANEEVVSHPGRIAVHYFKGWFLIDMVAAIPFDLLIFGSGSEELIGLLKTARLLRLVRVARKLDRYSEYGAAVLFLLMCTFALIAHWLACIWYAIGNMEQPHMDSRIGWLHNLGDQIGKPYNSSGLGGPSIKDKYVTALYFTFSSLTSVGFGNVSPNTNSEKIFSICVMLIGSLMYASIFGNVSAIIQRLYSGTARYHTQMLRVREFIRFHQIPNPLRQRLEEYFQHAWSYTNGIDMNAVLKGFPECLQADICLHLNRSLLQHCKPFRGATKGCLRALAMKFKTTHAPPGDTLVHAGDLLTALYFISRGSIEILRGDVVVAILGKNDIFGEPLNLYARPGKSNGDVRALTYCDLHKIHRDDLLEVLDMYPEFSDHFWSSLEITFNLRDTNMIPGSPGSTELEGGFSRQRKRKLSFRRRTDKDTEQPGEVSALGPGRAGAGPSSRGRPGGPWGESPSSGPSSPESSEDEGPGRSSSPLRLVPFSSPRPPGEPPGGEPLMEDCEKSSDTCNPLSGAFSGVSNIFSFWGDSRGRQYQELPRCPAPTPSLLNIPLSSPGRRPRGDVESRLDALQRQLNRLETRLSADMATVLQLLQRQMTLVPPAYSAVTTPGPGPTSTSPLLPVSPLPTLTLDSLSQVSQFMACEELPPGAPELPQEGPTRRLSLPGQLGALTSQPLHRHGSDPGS
Sequence of Cytochrome P450 2C19 (P33261 whole entry): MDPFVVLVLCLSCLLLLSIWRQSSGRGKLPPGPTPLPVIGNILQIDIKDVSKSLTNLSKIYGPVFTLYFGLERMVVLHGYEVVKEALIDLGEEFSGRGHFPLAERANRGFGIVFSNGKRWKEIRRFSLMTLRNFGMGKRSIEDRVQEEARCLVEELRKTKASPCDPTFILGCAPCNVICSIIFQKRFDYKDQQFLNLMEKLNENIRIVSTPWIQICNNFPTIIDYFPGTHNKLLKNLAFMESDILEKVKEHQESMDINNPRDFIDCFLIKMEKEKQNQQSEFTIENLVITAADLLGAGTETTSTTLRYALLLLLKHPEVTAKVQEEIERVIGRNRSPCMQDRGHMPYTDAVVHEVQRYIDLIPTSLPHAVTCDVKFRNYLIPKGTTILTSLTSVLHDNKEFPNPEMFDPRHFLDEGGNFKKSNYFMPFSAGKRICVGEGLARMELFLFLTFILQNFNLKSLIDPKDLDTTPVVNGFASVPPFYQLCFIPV
Sequence of Cytochrome P450 2D6 (P10635 whole entry): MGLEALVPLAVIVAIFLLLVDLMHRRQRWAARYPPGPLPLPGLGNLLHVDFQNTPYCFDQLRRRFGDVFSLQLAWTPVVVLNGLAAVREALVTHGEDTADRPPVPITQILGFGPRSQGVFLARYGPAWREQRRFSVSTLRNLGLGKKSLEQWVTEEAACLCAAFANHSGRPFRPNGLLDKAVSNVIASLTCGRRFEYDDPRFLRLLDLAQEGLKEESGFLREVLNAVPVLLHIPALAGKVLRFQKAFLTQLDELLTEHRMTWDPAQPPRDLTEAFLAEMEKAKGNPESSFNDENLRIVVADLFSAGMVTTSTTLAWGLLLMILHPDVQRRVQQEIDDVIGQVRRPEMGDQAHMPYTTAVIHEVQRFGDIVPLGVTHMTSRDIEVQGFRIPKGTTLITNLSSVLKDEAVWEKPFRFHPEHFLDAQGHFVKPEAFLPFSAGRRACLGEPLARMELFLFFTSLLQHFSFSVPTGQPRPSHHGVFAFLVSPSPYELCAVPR

Structure (SMILES) | hepatocyte CLint [1] | selectivity ratio [2] | pIC50 (Plasmodium falciparum [3]) | microsomal CLint [4] | microsomal CLint [5] | pIC50 (Plasmodium falciparum [6]) | pIC50 [9] | pIC50 (Plasmodium falciparum [12]) | pIC50 (Plasmodium falciparum [13]) | pIC50 (Plasmodium falciparum [14]) | other results
Nc1nc2cnccc2n1CC(O)c1ccc(Cl)cc1Cl (racemic) | 14 µL/min/1e6 cells | > 25 | < 5.70 | 5 µL/min/mg | 41 µL/min/mg | < 6.30 | – | – | – | – | –
Nc1nc2cccnc2n1CC(O)c1cccc(Cl)c1Cl (racemic) | 110 µL/min/1e6 cells | 26 | 6.47 | 69 µL/min/mg | – | 6.74 | < 4.48 | – | – | – | pIC50 (Cytochrome P450 3A4): < 4.52; solubility [7]: 26 µM (≈ 8.4 µg/mL); pIC50 (Cytochrome P450 2D6): < 4.52; pIC50 (Cytochrome P450 1A2): 5.28; pIC50 (Cytochrome P450 2C9): < 4.52; logD [8]: 3; pIC50 (Cytochrome P450 2C19): 4.99; fraction unbound [10]: 0.118
CN1CCN(c2ccc3nc(N)n(CC(O)c4ccc(C(F)(F)F)cc4Cl)c3n2)CC1 (racemic) | 106 µL/min/1e6 cells | 348 | 7.05 | 21 µL/min/mg | 102 µL/min/mg | 7.07 | 4.91 | 6.81 | 7.42 | 6.66 | pIC50 (Cytochrome P450 3A4): 4.85; solubility [7]: 118 µM (≈ 53.7 µg/mL); pIC50 (Cytochrome P450 2D6): 4.55; pIC50 (Plasmodium falciparum [11]): 6.43; pIC50 (Cytochrome P450 1A2): < 4.52; pIC50 (Cytochrome P450 2C9): < 4.52; logD [8]: 2.8; pIC50 (Cytochrome P450 2C19): 5.30; fraction unbound [10]: 0.234
Nc1nc2ccc(NCC(F)(F)F)nc2n1CC(O)c1ccc(Cl)cc1Cl (racemic) | 198 µL/min/1e6 cells | 375 | 7.40 | 17 µL/min/mg | 87 µL/min/mg | 7.85 | 5.46 | – | – | – | –
Nc1nc2ccc(C3CC3)nc2n1CC(O)c1ccc(Cl)cc1Cl (racemic) | 94 µL/min/1e6 cells | > 260 | 7.02 | 47 µL/min/mg | > 130 µL/min/mg | 7.66 | – | – | – | – | –
Nc1nc2ccc(C(=O)NC3CC3)nc2n1CC(O)c1ccc(Cl)cc1Cl (racemic) | – | > 10 | < 5.70 | – | – | < 6.30 | – | – | – | – | –
Nc1nc2ccc(OC3CCOC3)nc2n1CC(O)c1ccc(C(F)(F)F)cc1Cl (racemic) | 105 µL/min/1e6 cells | 800 | 7.60 | 76 µL/min/mg | 90 µL/min/mg | 7.74 | 4.78 | – | – | – | pIC50 (Cytochrome P450 3A4): 5.62; solubility [7]: 160 µM (≈ 70.9 µg/mL); pIC50 (Cytochrome P450 2D6): 4.90; pIC50 (Cytochrome P450 1A2): < 4.52; pIC50 (Cytochrome P450 2C9): < 4.52; Activity (Plasmodium falciparum [15]): Active; logD [8]: 3.7; pIC50 (Cytochrome P450 2C19): 6.11; fraction unbound [10]: 0.026
Nc1nc2ccc(OC3CNC3)nc2n1CC(O)c1ccc(C(F)(F)F)cc1Cl (racemic) | 14 µL/min/1e6 cells | > 50 | < 5.70 | < 4 µL/min/mg | – | < 6.30 | < 4.48 | – | – | – | –
Nc1nnc(C2CC2)n1CC(O)c1ccc(C(F)(F)F)cc1Cl (racemic) | – | > 50 | < 5.70 | – | – | < 5.70 | – | – | – | – | –
Nc1nnnn1CC(O)c1c(Cl)cccc1Cl (racemic) | – | > 50 | < 5.70 | – | – | < 5.70 | – | – | – | – | –
Nc1ncccc1CC(O)c1cccc(Cl)c1Cl (racemic) | – | 294 | 6.74 | – | – | 7.30 | – | 6.96 | 7.53 | 6.33 | pIC50 (Plasmodium falciparum [11]): 6.39
NC1=Nc2ccccc2CN1CC(O)c1ccc(Cl)cc1Cl (racemic) | – | 141 | 6.75 | – | – | 7.60 | – | – | – | – | –
C[C@@H]1CC[C@H]2[C@@H](C)C(=O)O[C@@H]3O[C@@]4(C)CC[C@@H]1[C@]32OO4 [ARTEMISININ] | – | – | 8.15 | – | – | 8.19 | – | 8.19 | 8.89 | 7.78 | pIC50 (Plasmodium falciparum [16]): 8.82; pIC50 (Plasmodium falciparum [17]): 8.74; pIC50 (Plasmodium falciparum [18]): 8.74; pIC50 (Plasmodium falciparum [11]): 7.99; pIC50 (Plasmodium falciparum [19]): 8.89; pIC50 (Plasmodium falciparum [20]): 8.90
O=C1C(O)=C([C@H]2CC[C@H](c3ccc(Cl)cc3)CC2)C(=O)c2ccccc21 [ATOVAQUONE] | – | – | 8.87 | – | – | 8.65 | – | 8.94 | 8.63 | < 5.70 | –
COC1=C2C[C@@H](C)C[C@H](OC)[C@H](O)[C@@H](C)/C=C(\C)[C@H](OC(N)=O)[C@@H](OC)/C=C\C=C(/C)C(=O)NC(=CC1=O)C2=O [GELDANAMYCIN] | – | – | – | – | – | – | – | – | – | – | pIC50 (Plasmodium falciparum [16]): 6.75; pIC50 (Plasmodium falciparum [17]): 6.69; pIC50 (Plasmodium falciparum [18]): 6.59; pIC50 (Plasmodium falciparum [20]): 6.77
CCc1nc(N)nc(N)c1-c1ccc(Cl)cc1 [PYRIMETHAMINE] | – | – | 7.55 | – | – | 5.07 | – | 4.81 | 5.00 | 7.96 | pIC50 (Plasmodium falciparum [11]): 4.86
